Test results published in patent US20230011869A1 (Hoffmann-La Roche Inc., priority 2018, published 2023).
Counter-ions that a name gives are not always drawn.

System: Acinetobacter baumannii ATCC17978
Experiment: Antimicrobial susceptibility testing: 90% growth inhibitory concentration (IC90) determination, Iso-Sensitest broth
Format: cell-based
Conditions: 90% growth inhibitory concentration, Acinetobacter baumannii ATCC17978, Iso-Sensitest broth, OD 600 nm over 16 h; read-out: ATCC17978 IC90
Method in brief: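 A. baumannii ATCC17978 grown in Iso-Sensitest broth across 10 compound concentrations at 35±2 °C.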

Question: COc1ccc(-c2cnc3c(Nc4ccc(C(=O)N5CCC(C(=O)NCCN6CCC6)CC5)c(C)c4)nccn23)cc1F [Example 61, N-(2-(azetidin-1-yl)ethyl)-1-(4-((3-(3-fluoro-4-methoxyphenyl)imidazo[1,2-a]pyrazin-8-yl)amino)-2-methylbenzoyl)piperidine-4-carboxamide] was tested. Which IC90 did it give?
Answer: Its IC90 is 180 nM.

Question: How did the IC90 turn out when COc1ccc(-c2cnc3c(Nc4ccc(C(=O)N5CCC(C(=O)NCCCN6CCC6)CC5)c(C)c4)nccn23)cc1F [Example 62, N-(3-(azetidin-1-yl)propyl)-1-(4-((3-(3-fluoro-4-methoxyphenyl)imidazo[1,2-a]pyrazin-8-yl)amino)-2-methylbenzoyl)piperidine-4-carboxamide] was run?
Answer: The IC90 was 160 nM.

Question: With COc1ccc(-c2cnc3c(Nc4ccc(C(=O)N5CCC(C(=O)N[C@@H]6CCNC6)CC5)c(C)c4)nccn23)c(F)c1F [Example 63, (R)-1-(4-((3-(2,3-difluoro-4-methoxyphenyl)imidazo[1,2-a]pyrazin-8-yl)amino)-2-methylbenzoyl)-N-(pyrrolidin-3-yl)piperidine-4-carboxamide hydrochloride] as the compound, how does the IC90 read?
Answer: The IC90 was 170 nM.

Question: Which IC90 does the source give for COc1ccc(-c2cnc3c(Nc4ccc(C(=O)N5CCN(C(=O)CN(C)C)CC5)c(C)c4)nccn23)cc1F [Example 64, 2-(dimethylamino)-1-(4-(4-((3-(3-fluoro-4-methoxyphenyl)imidazo[1,2-a]pyrazin-8-yl)amino)-2-methylbenzoyl)piperazin-1-yl)ethanone] here?
Answer: The IC90 was 270 nM.

Question: COc1ccc(-c2cnc3c(Nc4ccc(C(=O)N5CCC(C(=O)NCC6CNC6)CC5)c(C)c4)nccn23)cc1F [Example 65, N-(azetidin-3-ylmethyl)-1-(4-((3-(3-fluoro-4-methoxyphenyl)imidazo[1,2-a]pyrazin-8-yl)amino)-2-methylbenzoyl)piperidine-4-carboxamide] was tested. Which IC90 did it give?
Answer: The IC90 was 250 nM.

Question: Which IC90 does the source give for Cc1cc(Nc2nccn3c(-c4ccc(OC(F)F)cc4)cnc23)ccc1C(=O)N1CCN(C2=NCCN2)CC1 [Example 67] here?
Answer: Its IC90 is 120 nM.

Question: Cc1cc(Nc2nccn3c(-c4ccc(OC(F)F)cc4)cnc23)ccc1C(=O)N1CCC(C(=O)NCC2CNC2)CC1 [Example 68] was tested. Which IC90 did it give?
Answer: Its IC90 is 190 nM.

Question: How did the IC90 turn out when Cc1cc(Nc2nccn3c(-c4ccc(OC(F)F)cc4)cnc23)ccc1C(=O)N1CCN(C(=N)N)CC1 [Example 69] was run?
Answer: Its IC90 is 110 nM.

Question: With COc1ccc(-c2cnc3c(Nc4ccc(C(=O)N5CCC(O)(CN)CC5)c(C)c4)nccn23)cc1F [Example 71, [4-(aminomethyl)-4-hydroxypiperidin-1-yl]-[4-[[3-(3-fluoro-4-methoxyphenyl)imidazo[1,2-a]pyrazin-8-yl]amino]-2-methylphenyl]methanone;2,2,2-trifluoroacetic acid] as the compound, how does the IC90 read?
Answer: Its IC90 is 350 nM.

Question: With Cc1cc(Nc2nccn3c(-c4ccc(OC(F)F)cc4)cnc23)ccc1C(=O)N1CCC(Cc2cnc[nH]2)CC1 [Example 72, (4-((1H-imidazol-4-yl)methyl)piperidin-1-yl)(4-((3-(4-(difluoromethoxy)phenyl)imidazo[1,2-a]pyrazin-8-yl)amino)-2-methylphenyl)methanone] as the compound, how does the IC90 read?
Answer: The IC90 was 260 nM.

Question: Which IC90 does the source give for COc1ccc(-c2cnc3c(Nc4ccc(C(=O)N5CCN(C6CNC6)CC5)c(C)c4)nccn23)cc1F [Example 73, (4-(azetidin-3-yl)piperazin-1-yl)(4-((3-(3-fluoro-4-methoxyphenyl)imidazo[1,2-a]pyrazin-8-yl)amino)-2-methylphenyl)methanone hydrochloride] here?
Answer: The IC90 was 330 nM.

Question: Cc1cc(Nc2nccn3c(-c4ccc(OC(F)F)cc4)cnc23)ccc1C(=O)N1CCN(C(N)=O)CC1 [Example 74, 4-(4-((3-(4-(difluoromethoxy)phenyl)imidazo[1,2-a]pyrazin-8-yl)amino)-2-methylbenzoyl)piperazine-1-carboxamide] was tested. Which IC90 did it give?
Answer: Its IC90 is 71 nM.

Question: How did the IC90 turn out when Cc1cc(Nc2nccn3c(-c4ccc(OCC#N)c(F)c4F)cnc23)ccc1C(=O)N1CCC(CNC(=O)CO)CC1 [Example 91, N-[[1-[4-[[3-[4-(cyanomethoxy)-2,3-difluoro-phenyl]imidazo[1,2-a]pyrazin-8-yl]amino]-2-methyl-benzoyl]-4-piperidyl]methyl]-2-hydroxy-acetamide] was run?
Answer: The IC90 was 500 nM.

Same assay, conditions: Acinetobacter baumannii, ATCC17978, 16 h, read-out: ATCC17978 IC90, 90% growth inhibitory concentration, Acinetobacter baumannii ATCC17978, Iso-Sensitest broth, OD 600 nm over 16 h

Question: How did the IC90 turn out when COc1ccc(-c2cnc3c(Nc4ccc(C(=O)N5CCC(C(=O)NCC6(O)CCNC6)CC5)c(C)c4)nccn23)cc1F (stereo not drawn) [Example 54, 1-(4-((3-(3-fluoro-4-methoxyphenyl)imidazo[1,2-a]pyrazin-8-yl)amino)-2-methylbenzoyl)-N-((3-hydroxypyrrolidin-3-yl)methyl)piperidine-4-carboxamide 2,2,2-trifluoroacetate] was run?
Answer: The IC90 was 370 nM.

Question: For COc1ccc(-c2cnc3c(Nc4ccc(C(=O)N5CCC(C(=O)NCC(O)CN)CC5)c(C)c4)nccn23)cc1F (stereo not drawn) [Example 55, N-(3-amino-2-hydroxypropyl)-1-(4-((3-(3-fluoro-4-methoxyphenyl)imidazo[1,2-a]pyrazin-8-yl)amino)-2-methylbenzoyl)piperidine-4-carboxamide 2,2,2-trifluoroacetate], which IC90 is on record?
Answer: The IC90 was 390 nM.

Question: For COc1ccc(-c2cnc3c(Nc4ccc(C(=O)N5CCC(C(=O)N[C@@H]6CNC[C@H]6O)CC5)c(C)c4)nccn23)cc1F [Example 56, 1-(4-((3-(3-fluoro-4-methoxyphenyl)imidazo[1,2-a]pyrazin-8-yl)amino)-2-methylbenzoyl)-N-((3R,4R)-4-hydroxypyrrolidin-3-yl)piperidine-4-carboxamide 2,2,2-trifluoroacetate], which IC90 is on record?
Answer: The IC90 was 220 nM.

Question: With COc1ccc(-c2cnc3c(Nc4ccc(C(=O)N5CCC(C(=O)NC6CNC6)CC5)c(C)c4)nccn23)cc1F [Example 57, N-(azetidin-3-yl)-1-(4-((3-(3-fluoro-4-methoxyphenyl)imidazo[1,2-a]pyrazin-8-yl)amino)-2-methylbenzoyl)piperidine-4-carboxamide 2,2,2-trifluoroacetate] as the compound, how does the IC90 read?
Answer: Its IC90 is 250 nM.

Question: COc1ccc(-c2cnc3c(Nc4ccc(C(=O)N5CCC(C(=O)NCC6(O)CNC6)CC5)c(C)c4)nccn23)cc1F [Example 58, 1-(4-((3-(3-fluoro-4-methoxyphenyl)imidazo[1,2-a]pyrazin-8-yl)amino)-2-methylbenzoyl)-N-((3-hydroxyazetidin-3-yl)methyl)piperidine-4-carboxamide 2,2,2-trifluoroacetate] was tested. Which IC90 did it give?
Answer: Its IC90 is 250 nM.

Question: COc1ccc(-c2cnc3c(Nc4ccc(C(=O)N5CCC(C(=O)N[C@@H]6CCNC6)CC5)c(C)c4)nccn23)cc1F [Example 59, (R)-1-(4-((3-(3-fluoro-4-methoxyphenyl)imidazo[1,2-a]pyrazin-8-yl)amino)-2-methylbenzoyl)-N-(pyrrolidin-3-yl)piperidine-4-carboxamide 2,2,2-trifluoroacetate] was tested. Which IC90 did it give?
Answer: Its IC90 is 230 nM.

Question: How did the IC90 turn out when COc1ccc(-c2cnc3c(Nc4ccc(C(=O)N5CCC(C(=O)NCC6CNC6)CC5)c(C)c4)nccn23)c(F)c1F [Example 75, hydrochloride] was run?
Answer: Its IC90 is 160 nM.

Same assay, conditions: read-out: ATCC17978 IC90; 90% growth inhibitory concentration, Acinetobacter baumannii ATCC17978, Iso-Sensitest broth, OD 600 nm over 16 h; 2,2,2-trifluoroacetate

Question: How did the IC90 turn out when COc1ccc(-c2cnc3c(Nc4ccc(C(=O)N5CCC(C(=O)NCC6CNC6)CC5)c(C)c4)nccn23)cc1F [Example 60, N-(azetidin-3-ylmethyl)-1-(4-((3-(3-fluoro-4-methoxyphenyl)imidazo[1,2-a]pyrazin-8-yl)amino)-2-methylbenzoyl)piperidine-4-carboxamide 2,2,2-trifluoroacetate] was run?
Answer: Its IC90 is 210 nM.
